From ChEMBL document CHEMBL3507680, “University of Dundee, Gates Library screen for HepG2 cell viability”

Assay: Human HepG2 cell viability assay in 384 well format
Format: toxicity, cell-based
Set-up: dose 125 nL, time 70.5 hour; concentration not given beside the values
Details: HepG2 cells, read-out: Inhibition

Compound | cytotoxicity at 70.5 h [%]
CN(C)C(=O)C1CN(Cc2ccccn2)CCN(S(C)(=O)=O)C1 (stereo not drawn) | -3.97
CC1CCc2nn(CCNC(=O)c3cccs3)c(=O)cc2C1 (stereo not drawn) | 25.2
Cc1oc(C(C)C)cc1C(=O)N1C[C@H]2CC[C@@H]1CN(C(=O)N(C)C)C2 | 3.52
CC(NCc1ccc(C(N)=O)cc1)c1ccc(Cl)c(Cl)c1 (stereo not drawn) | -11.9
O=C(CSc1nnc(N2CCCC2)s1)NC(=O)Nc1ccccc1 | -5.54
Cc1cnn(CC2CCCN2C(=O)c2cc(C)nc3[nH]nc(C)c23)c1 (stereo not drawn) | -3.88
O[C@@H]1C[C@@H](c2nc(Cc3ccccc3)no2)N(CC2CC2)C1 | 2.65
COCc1nc(CN(CC(N)=O)C(C)C)cs1 | -3.43
COc1ccc(C(=O)NCC(c2cccn2C)N2CCN(C)CC2)cc1 (stereo not drawn) | -4.93
CC/C=C(/C)C(=O)NS(=O)(=O)c1ccc(C#N)c(C(F)(F)F)c1 | -12.5
O=S(=O)(Cc1ccccc1F)NCCCN1CCCCC1 | -1.2
Cc1ccc(C(=O)N2CCCC(N(C)C(=O)OC(C)(C)C)C2)o1 (stereo not drawn) | 2.04
Cc1ccc(S(=O)(=O)N2CCN(Cc3ccncc3)CC2)c(Cl)c1 | -26.7
Cc1ccnc(C2(C)CCCN2C(=O)c2cnccn2)n1 (stereo not drawn) | -10.4
CC(C)Cc1nc(CN(C)CCOc2ccccc2F)no1 | 12.5
COc1c(CNCc2ccc(N3CCCC3)nc2)c(C(C)C)nn1C | -9.28
Cn1cc(CN2CC[C@H]3O[C@H](C(=O)NC4CC4)CC[C@H]32)c2ccccc21 | -3.36
CNC(=O)CN1CCCC12CCN(C(=O)c1cccc(F)c1)CC2 | 24.1
O=C(Cn1cc(-c2ccccc2)ncc1=O)Nc1ccncc1 | -13.4
CN1C[C@@H](n2cnc(-c3ccccc3)c2-c2ccccn2)C[C@H]1C(=O)O | -10
O=C(NCc1cccnc1)Nc1ccn(CC(F)F)n1 | -3.22
c1cnc(N2CCOC3(CCCN(c4cnccn4)C3)C2)nc1 (stereo not drawn) | -8.79
N#Cc1ccc(S(=O)(=O)Nc2ccccc2C#N)cn1 | -6

Compound | cytotoxicity at 70.5 h [%]
CCN(C(c1cccnc1)c1ccc(F)c(F)c1)S(C)(=O)=O (stereo not drawn) | -4.7
CCc1ccccc1OCC(=O)Nc1ccnc(OCCN(C)C)c1 | 3.03
Cc1ccc(CN2CCCC3(CCN(S(=O)(=O)N(C)C)C3)C2)o1 (stereo not drawn) | -9.63
Cc1cnc(CNC(=O)C[C@@H]2COC[C@H]3CN(C4CCC4)C[C@@H]23)cn1 | 25.6
COC(=O)CCNC(=O)c1ccoc1CN1c2ccccc2CC1C (stereo not drawn) | -1.15
CC(O)CC(C)(C)CNC(=O)NCc1cccc(-n2cncn2)c1 (stereo not drawn) | -7.73
Cc1cc(C)n(C2CCN(S(C)(=O)=O)CC2)n1 | 9.79
CCCc1nc(N2CCCCC2)c2c(n1)c(C)nn2CC | 15.4
CN(Cc1nc2ccccc2[nH]1)C(=O)CN(C)c1ccccc1 | -2.68
CCS(=O)(=O)N1CCN(CC(F)(F)F)CC1 | -5.53
COc1nn(C)c2c1CCCN(C(=O)c1ccc3ccccc3n1)C2 | 8.68
CNC(=O)C1CCCN(C(=O)NCCC2Cc3ccccc3C2)C1 (stereo not drawn) | -1.76
COc1ccccc1C(=O)N1CC(Cc2nccc3ccn(C)c23)C1 | -0.41
O=C(COC1CCCC1)NCCCn1nc2ccccn2c1=O | -16.2
COc1ccc(C(O)CNC(=O)NCc2c(C)cc(C)[nH]c2=O)cc1 (stereo not drawn) | -5.03
CC(C)Oc1ccc2c(NC(=O)[C@H](C)O)nn(CC(F)(F)F)c2c1 | -16.3
CCCc1noc(CCC(=O)N2CCCCC2Cn2cc(C)cn2)n1 (stereo not drawn) | -13.5
CN(CCc1cn[nH]c1)C(=O)CCc1ccc(Cl)cc1 | -0.186
COc1cc(C(=O)Nc2nc(C)no2)ccc1C | 36.1
Cc1cc(C)nc(C2CCCN2C(=O)c2coc(C)n2)n1 (stereo not drawn) | 23
COc1ccc(C(=O)N2CCC(Nc3ccc(C)nn3)CC2)c(F)c1 | -6.97
O=C(CC(F)(F)F)NCC(O)c1ccc2ccccc2c1 (stereo not drawn) | -3.75
Cc1sc(Br)cc1S(=O)(=O)NCc1ccccn1 | -18.2

Compound | cytotoxicity at 70.5 h [%]
O=S1(=O)N=C(CSCc2ccccc2)Nc2ccccc21 | -3.64
CN(CCCNC(=O)c1ccccc1OCC(N)=O)CC(F)(F)F | 1.62
CN1CC2(CCCN(Cc3cccc(CCN)c3)C2)OC1=O (stereo not drawn) | 2.55
O=C(c1c[nH]c(=O)c(Cl)c1)N1CCc2ccccc2C1 | 1.04
Cn1cc(C(=O)NCCCN2CCCCCC2=O)c(-c2cccnc2)n1 | 11
Cc1occc1CNC(=O)NCCN(C)C1CCCC1 | -0.13
Cc1ccc(CN2CCC3(CC2)CCN(C(=O)c2cccn2C)C3)cc1 | -3.29
Cc1cccc(Cn2c(=O)[nH]c3csnc3c2=O)c1 | -4.48
Cc1cc(CSc2nc(=O)ccn2C(C)C)no1 | -3.31
CC(C)NC(=O)N1CCC2(CC1)CCn1c(C3CC3)cnc12 | 51.2
CCN1c2ccc(-c3cncn3CC(=O)NC(C)(C)C)cc2CC1C (stereo not drawn) | -7.81
CN(C)C(=O)CNC(=O)c1cc(Br)c2c(c1)OCCO2 | -3.47
CS(=O)(=O)NC[C@]12COC[C@H]1CN(C(=O)N1CCCC1)C2 | -4.24
COc1c(C2CCCN2C(=O)c2cncnc2C)c(C)nn1C (stereo not drawn) | 39.1
CC(=O)c1ccc(Cl)c(Cl)c1OCC(=O)NC(C)C | -6.15
COc1ccccc1C1(CNc2cn[nH]c(=O)c2Cl)CC1 | -12.7
Cc1ccc(C(=O)N2CCCC(Cn3cc(C(C)(C)N)nn3)C2)s1 (stereo not drawn) | -4.81
N[C@@H](Cc1ccccc1)c1nnc(S(=O)(=O)Cc2cccc(Cl)c2)o1 | 13.5
O=C(CCSc1ccc(F)cc1)NS(=O)(=O)c1ccc2c(c1)OCCO2 | -6.96
CCNC(=O)NC[C@H]1COCc2nc3cc(C)ccc3n21 | -3.17
CC(C)(C)NC(=O)NC(=O)COc1nc(C(C)(C)C)no1 | 13
CC(C)CN1CCC2(CC1)CC(NS(C)(=O)=O)c1ccccc1O2 (stereo not drawn) | 3.23
Cc1csc(N2CCN(CC(=O)Nc3c(C)n[nH]c3C)CC2C)n1 (stereo not drawn) | 7.7

Compound | cytotoxicity at 70.5 h [%]
Cn1nc(CC(C)(C)C)cc1NC(=O)c1ccc(CNC(N)=O)cc1 | -7.81
CC(C)CCN1C2(CCN(C(=O)C3(C)CC3)C2)c2ccccc2S1(=O)=O (stereo not drawn) | -9.44
COc1ccccc1Oc1ncccc1CNC(=O)C1COC(=O)N1 (stereo not drawn) | -14.6
CCCN(CC(=O)N(C)C)C(=O)c1ccc(-c2nc(C)cs2)cc1 | -6.25
CC(Oc1ccccc1C(F)(F)F)C(=O)NCCC(=O)N(C)C (stereo not drawn) | 0.999
Cc1cc2c(o1)CC(C)(C)CC2NC(=O)CNC(=O)C1CC1 (stereo not drawn) | -2.04
COc1ccccc1OCC(=O)Nc1ncccc1Cl | -0.838
COc1ccccc1-c1ncc(CN2CCC3(CCNCC3)CC2)cn1 | -7.68
COc1cc(-c2cnnc(NCCCOC(C)C)n2)cc(OC)c1OC | 6.95
CC(=O)N1CCC2(CC1)CN(C(=O)c1ccc3c(c1)OCO3)C2 | 5.17
Cc1nc(C)n(CC2CCCN(Cc3cccnc3)C2)n1 (stereo not drawn) | -0.814
O=c1c(NCCc2ccc(O)cc2)c(NCc2ccco2)c1=O | -4.28
CS(=O)(=O)NC1CCN(C(=O)c2ccc3ccccc3c2)C1 (stereo not drawn) | 5.82
Cc1nc2ccccc2n1CCNCc1cccc(O)c1 | -4.75
CCN(Cc1nonc1C)C(=O)c1cnccn1 | -8.37
Cc1c(C2c3nc[nH]c3CCN2CCOCc2ccccc2)cnn1C (stereo not drawn) | -10.4
CCSc1ccc(C(C)NC(=O)CCS(C)(=O)=O)cc1 (stereo not drawn) | -9.87
CN(CC(=O)N1CCc2[nH]c3ccc(F)cc3c2C1)CC1OCCO1 | 3.34
Cn1ncnc1-c1ccnc(NCc2ccccn2)n1 | 9.26
CN1CCCCC[C@@H]2[C@@H]1[C@H](c1ccccc1)CN2C(=O)c1cccnc1 | 3.63
CCCN1CCCC1c1nc(Cc2ccc(F)cc2)no1 (stereo not drawn) | 15.1
O=C(CC(F)(F)F)N1CCc2onc(Cn3cccn3)c2C1 | -13.4
CC(C)c1nnc(CN2CC(n3cccn3)Cc3ccccc32)o1 (stereo not drawn) | -4.11

Compound | cytotoxicity at 70.5 h [%]
CC(CO)NC(=O)c1ccc(NCc2cc(C#N)ccc2F)cc1 (stereo not drawn) | -0.552
Cc1ccccc1OCn1ccc(C(=O)NCCN2CCOCC2)n1 | -12.2
Cc1ccc2c(c1)C(NC(=O)N(C)C)CC21CCN(C(C)C)CC1 (stereo not drawn) | -5.2
COc1ccc2c(ccn2CC(=O)Nc2n[nH]c(C(C)C)n2)c1 | -12.1
CC(C)c1nnc2n1CCN(Cc1ncc(-c3ccccc3)o1)C2 | -10.5
CCN(C)C(=O)CN1CCC(c2cc(N3CCOCC3)nc(C)n2)CC1 | -6.04
CC(C)CCN1CC2(CCN(C3CCCOC3)CC2)OC1=O (stereo not drawn) | -8.74
CN1CCC(c2cc(CCO)ncn2)C1 (stereo not drawn) | 1.56
Cc1cccc(CN2C(=O)CO[C@@H]3CN(Cc4cnn(C)c4)C[C@H]32)c1 | 4.73
Cc1cc(-c2ccc(=O)n(C3CCN(S(C)(=O)=O)CC3)n2)c(C)o1 | 17.2
COCCN(C)C[C@@H]1CN(c2nc(C)cc(C)n2)C[C@@H]1CO | 1.4
Cc1cc(Oc2ccc(NC(=O)C3CC3)cc2)cc(C2CCNCC2)n1 | -4.04
Cc1ncc(CN(C)C(=O)Nc2cccc(C(=O)N3CCOCC3)c2)s1 | -2.6
COc1ccc(CNC(=O)NCc2ccc(C(N)=O)cc2)cn1 | -2.22
CC(C)(NC(=O)Cc1ccccc1F)C(=O)O | -4.89
Cc1ncsc1C(=O)N1CCCCC1c1cc2nc(C)c(C)c(O)n2n1 (stereo not drawn) | -4.23
O=C1[C@H]2CN(S(=O)(=O)c3cccs3)C[C@H]2CN1CC1CC1 | -2.27
CC(C)c1nnc(CN(C)C(c2ccc(F)cc2)c2cccnc2)o1 (stereo not drawn) | -2.85
Cc1cc(NCCCOC(C)C)c2nncn2n1 | 7.73
O=C(c1cccc2c1OCO2)N1CCCC1c1noc(C2CC2)n1 (stereo not drawn) | 31.3
CC[C@@H](CO)NC(=O)c1cc(COc2ccc(OC)cc2Cl)[nH]n1 | -3.92
